From PMC7031696 (Cell chemical biology, 2019)
Where two headings read alike, the source gives them in different places.

Columns and labels:
[1] = tested on: asynchronous 3D7-A10 parasite cultures; assay: Standard 72-h exposure asexual blood stage susceptibility assay (IC50^72h); type: cell-based, Plasmodium falciparum; details: Plasmodium falciparum, 3D7, 72 h, read-out: Overall (72hr assay) Mean IC50 (IC50^72h)
[2] = tested on: Plasmodium falciparum 3D7-A10 parasites; assay: Stage specificity assay (8-h exposure of synchronized stages, IC50^8h); type: cell-based; details: for IC50: Plasmodium falciparum
[3] = tested on: 3D7-MR4 trophozoite parasite-infected RBCs; assay: Metabolomic profiling (hydrophilic metabolite changes, UHPLC-MS); type: cell-based, Plasmodium falciparum

CNc1nc(NCCCN(C)C)c2sc(-c3cccc(C(F)(F)F)c3)cc2n1 [MMV668311]
IC50 [1]: 63.5 nM
Ratio lowest IC50 8hr/IC50 72hr ([2]; 3D7-A10): 1.1
IC50 ([2]; 3D7, read-out: Early rings Mean IC50 (IC50^8h), 8-h exposure 0–8 hr, 3D7-A10, survival at 60 h): 140 nM
IC50 ([2]; 3D7, read-out: Early trophozoites Mean IC50 (IC50^8h), 8-h exposure 16–24 hr, 3D7-A10, survival at 60 h): 68.9 nM
IC50 ([2]; 3D7, read-out: Late rings Mean IC50 (IC50^8h), 8-h exposure 8–16 hr, 3D7-A10, survival at 60 h): 97.7 nM
IC50 ([2]; 3D7, read-out: Late trophozoites Mean IC50 (IC50^8h), 8-h exposure 24–32 hr, 3D7-A10, survival at 60 h): 122 nM
IC50 ([2]; 3D7, read-out: Schizonts Mean IC50 (IC50^8h), 8-h exposure 32–40 hr, 3D7-A10, survival at 60 h): 382 nM
Stage of peak activity (Figure 6) ([2]; period when the parasite was most susceptible (lowest IC50^8h)): rings and trophozoites
changes within the set of metabolites detected (low fold change group) ([3]; 10 × IC50^72h, 2.5 hr, trophozoites): did not induce major changes
Log2(fold changes) 3-phosphoglycerate ([3]; metabolite 3-phosphoglycerate, log2 fold change): 0.1799
Log2(fold changes) 4-Pyridoxic acid ([3]; metabolite 4-Pyridoxic acid, log2 fold change): 0.0000
Log2(fold changes) 4-aminobutyrate ([3]; metabolite 4-aminobutyrate, log2 fold change): 0.0013
Log2(fold changes) 4-phosphopantetheine ([3]; metabolite 4-phosphopantetheine, log2 fold change): 0.0000
Log2(fold changes) 4-phosphopantothenate ([3]; metabolite 4-phosphopantothenate, log2 fold change): 0.0507
Log2(fold changes) 5-aminopentanoic acid ([3]; metabolite 5-aminopentanoic acid, log2 fold change): 0.0000
Log2(fold changes) 5-methyl-THF ([3]; metabolite 5-methyl-THF, log2 fold change): 0.0000
Log2(fold changes) 5-phosphoribosyl-1-pyrophosphate ([3]; metabolite 5-phosphoribosyl-1-pyrophosphate, log2 fold change): -0.0449
Log2(fold changes) 6-phospho-D-gluconate ([3]; metabolite 6-phospho-D-gluconate, log2 fold change): 0.0744
Log2(fold change) HVDD ([3]; metabolite HVDD): 0.6397
Log2(fold change) Hydroxyisocaproic acid ([3]; metabolite Hydroxyisocaproic acid): 0.0000
Log2(fold change) IDP ([3]; metabolite IDP): 0.0000
Log2(fold change) IMP ([3]; metabolite IMP): 0.0136
Log2(fold change) Inositol ([3]; metabolite Inositol): 0.0000
Log2(fold change) Isopentyl-PP ([3]; metabolite Isopentyl-PP): 0.0000
Log2(fold change) L-arginino-succinate ([3]; metabolite L-arginino-succinate): 0.0000
Log2(fold change) LD ([3]; metabolite LD): 0.0000
Log2(fold change) Myristoyl/tetradecanoyl-CoA ([3]; metabolite Myristoyl/tetradecanoyl-CoA): 0.0000
Log2(fold change) N-Acetyl-L-alanine ([3]; metabolite N-Acetyl-L-alanine): 0.2894
Log2(fold change) N-acetyl-L-ornithine ([3]; metabolite N-acetyl-L-ornithine): 0.9240
Log2(fold change) N-acetyl-glucosamine-1/6-phosphate ([3]; metabolite N-acetyl-glucosamine-1/6-phosphate): -0.0813
Log2(fold change) N-acetyl-glutamate ([3]; metabolite N-acetyl-glutamate): 0.1520
Log2(fold change) N-acetyl-glutamine ([3]; metabolite N-acetyl-glutamine): 0.0000
Log2(fold change) N-carbamoyl-L-aspartate ([3]; metabolite N-carbamoyl-L-aspartate): 0.0640
Log2(fold change) NAD+ ([3]; metabolite NAD+): 0.0000
Log2(fold change) NADH ([3]; metabolite NADH): 0.1408
Log2(fold change) NADP+ ([3]; metabolite NADP+): -0.0507
Log2(fold change) NADPH ([3]; metabolite NADPH): 0.0063
Log2(fold change) O-acetyl-L-serine ([3]; metabolite O-acetyl-L-serine): 0.0000
Log2(fold change) Octoluse 8/1P ([3]; metabolite Octoluse 8/1P): 0.0000
Log2(fold change) Octoluse Bisphosphate ([3]; metabolite Octoluse Bisphosphate): -0.0578
Log2(fold change) PD ([3]; metabolite PD): -0.3993
Log2(fold change) PE ([3]; metabolite PE): 0.0346
Log2(fold change) PEE ([3]; metabolite PEE): 0.4823
Log2(fold change) PEEK ([3]; metabolite PEEK): 0.0000
Log2(fold change) PVNF ([3]; metabolite PVNF): 0.0144
Log2(fold change) Pyroglutamic acid ([3]; metabolite Pyroglutamic acid): 0.0000
Log2(fold change) Pyrophosphate ([3]; metabolite Pyrophosphate): 0.0000
Log2(fold change) Ribose-5-phosphate ([3]; metabolite Ribose-5-phosphate): -0.1895
Log2(fold change) S-adenosyl-L-homocysteine ([3]; metabolite S-adenosyl-L-homocysteine): -0.2447
Log2(fold change) S-adenosyl-L-methioninamine ([3]; metabolite S-adenosyl-L-methioninamine): 0.0000
Log2(fold change) S-adenosyl-L-methionine ([3]; metabolite S-adenosyl-L-methionine): 0.0000
Log2(fold change) S-methyl-5'-thioadenosine ([3]; metabolite S-methyl-5'-thioadenosine): 0.0000
Log2(fold change) SD ([3]; metabolite SD): 0.2373
Log2(fold change) SDL ([3]; metabolite SDL): 0.0000
Log2(fold change) SID ([3]; metabolite SID): 0.1033
Log2(fold change) Sedoheptulose bisphosphate ([3]; metabolite Sedoheptulose bisphosphate): 0.1946
Log2(fold change) Thiamine pyrophosphate ([3]; metabolite Thiamine pyrophosphate): 0.0000
Log2(fold changes) UDP-D-glucose ([3]; metabolite UDP-D-glucose, log2 fold change): 0.0458
Log2(fold changes) UDP-D-glucuronate ([3]; metabolite UDP-D-glucuronate, log2 fold change): -0.0320
Log2(fold changes) UDP-N-acetyl-glucosamine ([3]; metabolite UDP-N-acetyl-glucosamine, log2 fold change): -0.0391
Log2(fold changes) UDP ([3]; metabolite UDP, log2 fold change): -0.7320
Log2(fold changes) UMP ([3]; metabolite UMP, log2 fold change): -0.3054
Log2(fold changes) UTP ([3]; metabolite UTP, log2 fold change): 0.0564
Log2(fold change) hydroxyphenylpyruvate ([3]; metabolite hydroxyphenylpyruvate): 0.0000
Log2(fold change) hydroxyproline/Aminolevulinate ([3]; metabolite hydroxyproline/Aminolevulinate): 0.0878
Log2(fold change) hypoxanthine ([3]; metabolite hypoxanthine): 0.2077
Log2(fold change) indole ([3]; metabolite indole): 0.0000
Log2(fold change) inosine ([3]; metabolite inosine): 0.0666
Log2(fold change) isoleucine ([3]; metabolite isoleucine): 0.1965
Log2(fold change) lactate ([3]; metabolite lactate): 0.0645
Log2(fold change) leucine ([3]; metabolite leucine): 0.2550
Log2(fold change) lysine ([3]; metabolite lysine): 0.0000
Log2(fold change) malate ([3]; metabolite malate): 0.0044
Log2(fold change) maleic acid ([3]; metabolite maleic acid): -0.0062
Log2(fold change) methionine ([3]; metabolite methionine): 0.4374
Log2(fold change) myo-inositol ([3]; metabolite myo-inositol): 0.0000
Log2(fold change) nicotinamide mononucleotide ([3]; metabolite nicotinamide mononucleotide): 0.0000
Log2(fold change) nicotinate ([3]; metabolite nicotinate): 0.1094
Log2(fold change) ornithine ([3]; metabolite ornithine): 0.0000
Log2(fold change) orotate ([3]; metabolite orotate): -0.2365
Log2(fold change) orotidine-5'-phosphate ([3]; metabolite orotidine-5'-phosphate): -0.1452
Log2(fold change) oxaloacetate ([3]; metabolite oxaloacetate): 0.0000
Log2(fold change) p-aminobenzoate ([3]; metabolite p-aminobenzoate): 0.0000
Log2(fold change) p-hydroxybenzoate ([3]; metabolite p-hydroxybenzoate): 0.0000
Log2(fold change) pantothenate ([3]; metabolite pantothenate): -0.0310
Log2(fold change) phenylalanine ([3]; metabolite phenylalanine): 0.2649
Log2(fold change) phenylpyruvate ([3]; metabolite phenylpyruvate): 0.0000
Log2(fold change) phosphoenolpyruvate ([3]; metabolite phosphoenolpyruvate): 0.2026
Log2(fold change) prephenate ([3]; metabolite prephenate): 0.0000
Log2(fold change) proline ([3]; metabolite proline): 0.1500
Log2(fold change) pyridoxine ([3]; metabolite pyridoxine): 0.2387
Log2(fold change) pyruvate ([3]; metabolite pyruvate): 0.0542
Log2(fold change) riboflavin ([3]; metabolite riboflavin): 0.0000
Log2(fold change) ribose ([3]; metabolite ribose): 0.4509
Log2(fold change) ribose-phosphate ([3]; metabolite ribose-phosphate): -0.2314
Log2(fold change) ribulose-5-phosphate ([3]; metabolite ribulose-5-phosphate): -0.1585
Log2(fold change) serine ([3]; metabolite serine): 0.1402
Log2(fold change) sn-glycerol-3-phosphate ([3]; metabolite sn-glycerol-3-phosphate): 0.1282
Log2(fold change) succinate/Methylmalonic acid ([3]; metabolite succinate/Methylmalonic acid): 0.1707
Log2(fold change) succinyl-CoA/methylmalonyl-CoA ([3]; metabolite succinyl-CoA/methylmalonyl-CoA): 0.2947
Log2(fold change) taurine ([3]; metabolite taurine): 0.0000
Log2(fold change) thiamine ([3]; metabolite thiamine): 0.0000
Log2(fold change) threonine/homoserine ([3]; metabolite threonine/homoserine): 0.3600
Log2(fold change) thymidine ([3]; metabolite thymidine): 0.0000
Log2(fold changes) thymine ([3]; metabolite thymine, log2 fold change): 0.0000
Log2(fold changes) trehalose-6-Phosphate ([3]; metabolite trehalose-6-Phosphate, log2 fold change): 0.0000
Log2(fold changes) tryptophan ([3]; metabolite tryptophan, log2 fold change): 0.2172
Log2(fold changes) tyrosine ([3]; metabolite tyrosine, log2 fold change): 0.2350
Log2(fold changes) uridine ([3]; metabolite uridine, log2 fold change): 0.0000
